This note sets out measurements from patent publication EP0485583B1, “USE OF TETRAHYDROISOQUINOLINE DERIVATIVES FOR PREPARING ANTITUMORAL DRUGS” (ROUSSEL-UCLAF, priority 1990, dated 1991).

SMILES strings stand for the structures.

The target of this test is T1, tyrosinekinase du récepteur de l'EGF (Epidermal Growth Factor) (Homo sapiens, UniProt P00533).
T1 construct: On utilise des membranes de cellules A431 (ATCC CRL 1555) comme source de récepteurs de l'EGF; host or cells: A431 cell membranes
T1 sequence (P00533 25-1210): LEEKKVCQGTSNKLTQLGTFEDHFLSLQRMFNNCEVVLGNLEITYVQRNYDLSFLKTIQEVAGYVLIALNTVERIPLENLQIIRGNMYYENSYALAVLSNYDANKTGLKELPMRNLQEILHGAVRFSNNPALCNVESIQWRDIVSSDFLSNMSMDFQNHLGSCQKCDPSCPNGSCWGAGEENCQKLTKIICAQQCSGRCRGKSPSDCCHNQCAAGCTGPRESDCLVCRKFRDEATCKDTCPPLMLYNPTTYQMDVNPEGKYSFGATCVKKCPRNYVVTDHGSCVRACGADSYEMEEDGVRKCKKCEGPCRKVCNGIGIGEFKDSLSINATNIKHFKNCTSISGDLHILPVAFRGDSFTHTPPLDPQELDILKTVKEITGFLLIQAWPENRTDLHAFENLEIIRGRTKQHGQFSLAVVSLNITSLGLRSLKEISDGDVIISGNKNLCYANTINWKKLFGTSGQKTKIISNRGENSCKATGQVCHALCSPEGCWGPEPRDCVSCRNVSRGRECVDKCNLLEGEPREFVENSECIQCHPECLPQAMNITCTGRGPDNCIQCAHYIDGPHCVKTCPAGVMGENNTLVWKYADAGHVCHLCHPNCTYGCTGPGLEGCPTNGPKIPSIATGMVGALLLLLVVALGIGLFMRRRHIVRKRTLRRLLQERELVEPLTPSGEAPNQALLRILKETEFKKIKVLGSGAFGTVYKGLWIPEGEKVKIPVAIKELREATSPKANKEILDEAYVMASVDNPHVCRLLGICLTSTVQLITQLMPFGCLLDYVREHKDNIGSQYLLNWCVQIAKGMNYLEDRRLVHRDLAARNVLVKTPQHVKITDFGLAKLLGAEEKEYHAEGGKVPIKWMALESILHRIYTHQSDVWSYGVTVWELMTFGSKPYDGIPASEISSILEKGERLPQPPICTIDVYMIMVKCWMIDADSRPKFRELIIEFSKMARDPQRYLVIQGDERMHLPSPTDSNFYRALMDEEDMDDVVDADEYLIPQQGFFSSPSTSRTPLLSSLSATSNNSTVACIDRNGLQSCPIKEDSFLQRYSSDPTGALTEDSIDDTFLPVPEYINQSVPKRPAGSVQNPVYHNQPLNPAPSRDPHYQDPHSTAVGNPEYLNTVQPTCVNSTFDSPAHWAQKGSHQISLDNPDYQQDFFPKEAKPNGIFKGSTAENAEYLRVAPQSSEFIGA
Briefly: Inhibition of EGF receptor tyrosine kinase (A431 cell membranes, 32P incorporation into poly(Glu, Ala, Tyr 6:3:1)). The following applies: A431 cell membranes (ATCC CRL 1555); samples containing substrate poly(Glu, Ala, Tyr 6:3:1) and EGF; 15 minutes at 30°C; dilution series starting at 51 microgrammes/ml; read-out: CI₅₀ (converted). The format is biochemical. The procedure: Mesure de l'inhibition de la tyrosinekinase du récepteur de l'EGF (Epidermal Growth Factor).
Cette lignée cellulaire exprime à sa surface un grand nombre de récepteur de l'EGF qui possèdent une activité tyrosinekinase.
Ces cellules sont préincubées avec ou sans EGF (1000 nM) pendant 15 minutes et ajoutées au tampon HEPES (acide N-2-hydroxyéthyl-piperazine N'-2-éthanesulfonique) correspondant (avec ou sans EGP) et contenant des ions Mg²⁺ (10 mM) et Mn²⁺ (2 mM) 0,2 % de triton X-100, de l'orthovanadate de sodium (20 micromoles) et l'inhibiteur.
Des échantillons contenant ou ne contenant pas le substrat poly(Glu, Ala, Tyr 6 : 3 : 1) sont préparés. On initie la réaction par addition de [gamma³²P] ATP (32 micromoles). Après incubation pendant 15 minutes à 30°C les échantillons sont précipités à l'aide d'acide […] à 10 %, filtrés sur membrane Millipore ® et le ³²P incorporé est mesuré avec un compteur de scintillation liquide.

For the compound `Oc1ccc2[nH]c3c(c2c1)CCNC3Cc1ccc(O)c(O)c1` (stereo not drawn) [Produit B, 1,2-benzènediol 4-(2,3,4,9-tétrahydro 6-hydroxy-1H-pyrido[3,4-b]indol 1-yl) méthyl], the IC50 was 8.06 µM.
With `Oc1ccc(CC2NCCc3cc(O)c(O)cc32)cc1O` (stereo not drawn) [Produit A, 1-[(3,4-dihydroxyphényl)méthyl] 1,2,3,4-tétrahydro isoquinoléïne 6,7-diol], the IC50 is 3.83 µM.
For `Oc1cc2c(cc1O)CC(Cc1ccccc1)NC2` (stereo not drawn) [Produit de l'exemple 1, Bromhydrate du 3-phénylméthyl 1,2,3,4-tétrahydro, isoquinoléïne 6,7-diol] the value was 13.3 µM.
